Here are results for 32 compounds from patent US12065445B2, “CDK2 inhibitors and methods of using the same” (Cedilla Therapeutics, Inc., priority 2021, dated 2024).

In this assay the test system is Kuramochi cells. Put plainly: BrdU Cell Proliferation Assay. Format: cell-based. The settings on record: read-out: BrdU - KURAMOCHI.1: IC50. The gist of the method:
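Kuramochi cells were seeded at 2,000 cells/well, adhered overnight, then treated with a 10-point, 3-fold compound dilution series for 4 days. Proliferation was measured by a 1-hour BrdU pulse, anti-BrdU peroxidase colorimetric ELISA and 450 nm absorbance. Values were background-subtracted and normalized to DMSO wells.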

As usually defined, the IC50 is the concentration that gives 50% inhibition.

Regarding `C[C@@H](OCC1CCCCC1)[C@H](NC(=O)[C@H]1CN(C(=O)c2cnn(Cc3ccccc3)c2)CC12CN(C(=O)[C@H]1CC1(C)C)C2)C(=O)N1CC(C)(C)C1` [I-153B], the IC50 was over 10 µM.

On to `CNC(=O)[C@@H](NC(=O)[C@H]1CN(C(=O)c2cnn(Cc3ccccc3)c2)CC12CN(C(=O)CC1CC1)C2)[C@@H](C)OCC1CCCCC1` [I-56B], for which the IC50 was over 10 µM.

`CC1(C)C[C@@H]1C(=O)N1CC2(CN(C(=O)c3cnn(Cc4ccccc4)c3)C[C@@H]2C(=O)N2CCC(Cc3ccccc3)CC2)C1` [I-58B]: the IC50 is over 10 µM.

Turning to `CNC(=O)[C@@H](NC(=O)[C@@H]1CN(C(=O)c2cnn(Cc3ccccc3)c2)CC12CN(C(=O)C(C)(C)C#N)C2)[C@@H](C)OCc1ccccc1` [I-76A], the IC50 is over 10 µM.

Regarding `C[C@@H](OCc1ccccc1)[C@H](NC(=O)C1CN(C(=O)c2cnn(Cc3ccccc3)c2)CC12CN(C(=O)[C@H]1CC1(C)C)C2)C(=O)O` (stereo partly drawn) [I-9, (2S,3R)-2-(6-(1-benzyl-1H-pyrazole-4-carbonyl)-2-((S)-2,2-dimethylcyclopropanecarbonyl)-2,6-diazaspiro[3.4]octane-8-carboxamido)-3-(benzyloxy)butanoic acid], the IC50 was over 10 µM.

Regarding `C[C@@H](NC(=O)[C@@H]1CN(C(=O)c2cnn(Cc3ccccc3)c2)CC12CN(C(=O)[C@H]1CC1(C)C)C2)c1cccc(F)c1` [I-128A], the IC50 was over 10 µM.

Turning to `CNC(=O)[C@H](CCCC1CCCCC1)NC(=O)[C@@H]1CN(C(=O)c2cnn(Cc3ccccc3)c2)CC12CN(C(=O)[C@H]1CC1(C)C)C2` [I-155A], the IC50 was over 10 µM.

On to `CNC(=O)[C@@H](NC(=O)[C@@H]1CN(C(=O)c2cnn(Cc3ccccc3)c2)CC12CN(C(=O)C1(C)CC1)C2)[C@@H](C)OCc1ccccc1` [I-67A, (S)-6-(1-benzyl-1H-pyrazole-4-carbonyl)-N-((2S,3R)-3-(benzyloxy)-1-(methylamino)-1-oxobutan-2-yl)-2-(1-methylcyclopropane-1-carbonyl)-2,6-diazaspiro[3.4]octane-8-carboxamide], for which the half-maximal inhibitory concentration (IC50) was over 10 µM.

Turning to `C[C@@H](O)[C@H](NC(=O)[C@@H]1CN(C(=O)c2cnn(C)c2)CC12CN(C(=O)[C@H]1CC1(C)C)C2)C(=O)N1CCCCC1` [I-305], the half-maximal inhibitory concentration (IC50) lay in the range of 0.5 to 5 µM.

Take `CNC(=O)[C@@H](NC(=O)[C@@H]1CN(C(=O)c2cnn(Cc3ccccc3)c2)CC12CN(C(=O)[C@H]1CC1(C)C)C2)[C@@H](C)OCc1ccncc1` [I-244]: the IC50 was over 10 µM.

Take `CC1(C)C[C@@H]1C(=O)N1CC2(CN(C(=O)c3cnn(Cc4ccccc4)c3)C[C@@H]2C(=O)Nc2cccc(Cc3ccccc3)c2)C1` [I-75B]: the IC50 was over 10 µM.

Take `CNC(=O)[C@@H](NC(=O)[C@@H]1CN(C(=O)c2cnn(Cc3ccccc3)c2)CC12CN(C(=O)C1(C(F)(F)F)CC1)C2)[C@@H](C)OCc1ccccc1` [I-108A]: the IC50 is over 10 µM.

With `CNC(=O)[C@@H](NC(=O)[C@H]1CN(C(=O)c2sc(Cl)nc2Cl)CC12CN(C(=O)[C@H]1CC1(C)C)C2)[C@@H](C)OCC1CCCCC1` [I-232B], the IC50 is over 10 µM.

Take `C[C@@H]1C[C@H](C)CN(C(=O)[C@@H](NC(=O)C2CN(C(=O)c3cncs3)CC23CN(C(=O)[C@H]2CC2(C)C)C3)[C@@H](C)OCC2CCCCC2)C1` (some centres unmarked) [I-172]: the IC50 was at most 0.5 µM.

On to `CNC(=O)[C@@H](NC(=O)[C@@H]1CN(C(=O)c2cnn(Cc3ccccc3)c2)CC12CN(C(=O)CC(F)(F)F)C2)[C@@H](C)OCc1ccccc1` [I-87A], for which the IC50 was over 10 µM.

Regarding `CNC(=O)[C@@H](NC(=O)[C@H]1CN(C(=O)c2cnn(Cc3ccccc3)c2)CC12CN(C(=O)[C@H]1CC1(C)C)C2)[C@@H](C)OCC1(C(F)(F)F)CC1` [I-205B], the IC50 was over 10 µM.

Consider `C[C@@H](OCc1ccccc1)[C@H](NC(=O)C1CN(C(=O)c2cnn(Cc3ccccc3)c2)CC12CN(C(=O)[C@H]1CC1(C)C)C2)C(=O)NCC#CCN` (some centres unmarked) [I-28], for which the IC50 was over 10 µM.

On to `CN(C(=O)[C@@H]1CCCN(C(=O)[C@@H]2CN(C(=O)c3cnn(Cc4ccccc4)c3)CC23CN(C(=O)[C@H]2CC2(C)C)C3)C1)C1CCCCC1` [I-181], for which the IC50 is over 10 µM.

With `CC1(C)C[C@@H]1C(=O)N1CC2(CN(C(=O)c3cnn(Cc4ccccc4)c3)C[C@H]2C(=O)NCCOCc2ccccc2)C1` [I-96A], the IC50 is over 10 µM.

On to `C[C@@H](OCC1CCC(F)(F)CC1)[C@H](NC(=O)[C@H]1CN(C(=O)c2cn[nH]c2)CC12CN(C(=O)[C@H]1CC1(C)C)C2)C(=O)N1CCC(F)(F)CC1` [I-228B], for which the IC50 is over 10 µM.

Turning to `C[C@@H](OCC1CCC(F)(F)CC1)[C@H](NC(=O)[C@H]1CN(C(=O)c2cn[nH]c2)CC12CN(C(=O)C1(C(F)(F)F)CC1)C2)C(=O)N1CCC(F)(F)CC1` [I-188B], the IC50 was over 10 µM.

Turning to `CNC(=O)[C@@H](NC(=O)[C@@H]1CN(C(=O)c2cn[nH]c2)CC12CN(C(=O)[C@H]1CC1(C)C)C2)[C@@H](C)OCC1CCCCC1` [I-66A, (S)—N-((2S,3R)-3-(cyclohexylmethoxy)-1-(methylamino)-1-oxobutan-2-yl)-2-((S)-2,2-dimethylcyclopropane-1-carbonyl)-6-(1H-pyrazole-4-carbonyl)-2,6-diazaspiro[3.4]octane-8-carboxamide], the IC50 is over 10 µM.

On to `CNC(=O)[C@@H](NC(=O)[C@@H]1CN(C(=O)c2cnn(Cc3ccccc3)c2)CC12CN(C(=O)[C@H]1CC1(C)C)C2)C(C)(C)S(=O)(=O)Cc1ccccc1` [I-199, (S)-6-(1-benzyl-1H-pyrazole-4-carbonyl)-N—((R)-3-(benzylsulfonyl)-3-methyl-1-(methylamino)-1-oxobutan-2-yl)-2-((S)-2,2-dimethylcyclopropane-1-carbonyl)-2,6-diazaspiro[3.4]octane-8-carboxamide], for which the half-maximal inhibitory concentration (IC50) was over 10 µM.

Take `CC1(C)C[C@@H]1C(=O)N1CC2(CN(C(=O)c3cnn(Cc4ccccc4)c3)C[C@@H]2C(=O)N2CCCC(Cc3ccccc3)C2)C1` (some centres unmarked) [I-91B]: the IC50 was over 10 µM.

Regarding `C[C@@H](OCc1ccccc1)[C@H](NC(=O)C1CN(C(=O)c2cnn(Cc3ccccc3)c2)CC12CN(C(=O)[C@H]1CC1(C)C)C2)C(=O)N1CCCC(CO)C1` (some centres unmarked) [I-98], the 50% inhibitory concentration (IC50) is over 10 µM.

In the case of `CNC(=O)[C@@H](NC(=O)[C@H]1CN(C(=O)c2cnc(COC)s2)CC12CN(C(=O)[C@H]1CC1(C)C)C2)[C@@H](C)OCC1CCCCC1` [I-145B], the IC50 is over 10 µM.

With `CNC(=O)[C@@H](NC(=O)[C@H]1CN(C(=O)c2cnn(Cc3ccccc3)c2)CC12CN(C(=O)Cc1ccccc1)C2)[C@@H](C)OCc1ccccc1` [I-25B], the IC50 was over 10 µM.

In the case of `CNC(=O)[C@@H](NC(=O)[C@H]1CN(C(=O)c2cnn(Cc3ccccc3)c2)CC12CN(C(=O)CC1CCC1)C2)[C@@H](C)OCc1ccccc1` [I-27B], the IC50 is over 10 µM.

For the compound `Cc1noc([C@H](C)NC(=O)[C@@H]2CN(C(=O)c3cnn(Cc4ccccc4)c3)CC23CN(C(=O)[C@H]2CC2(C)C)C3)n1` [I-158A], the IC50 is over 10 µM.

As to `CNC(=O)[C@@H](NC(=O)[C@H]1CN(C(=O)c2cnn(Cc3ccccc3)c2)CC12CN(C(=O)C1C(C)(C)C1(C)C)C2)[C@@H](C)OCc1ccccc1` [I-89B], the IC50 is over 10 µM.

In the case of `CNC(=O)[C@@H](NC(=O)[C@@H]1CN(C(=O)c2ccccn2)CC12CN(C(=O)[C@H]1CC1(C)C)C2)[C@@H](C)OCc1ccccc1` [I-45A], the IC50 was over 10 µM.

Regarding `CNC(=O)[C@@H](NC(=O)[C@@H]1CN(C(=O)c2cnn(C)c2)CC12CN(C(=O)[C@H]1CC1(C)C)C2)[C@@H](C)OCc1ccccc1` [I-33A], the 50% inhibitory concentration (IC50) was over 10 µM.
